Measured values taken from paper PMC6058497 (Drug Delivery, 2018).
Converted amounts (≈) assume the structure as drawn. Read-outs that look alike come from different tables or passages of the source.

Legend:
U-87 MG cells = assay: MTT cytotoxicity test, U-87 MG; format: cell-based, human
Method: (§1) Cancer cell lines U-87 MG (glioblastoma) and MCF-7 (breast cancer) were obtained from the ATCC (ATCC number HTB-14 and HTB-22, respectively). Immortalized human fibroblasts used as normal cells were kindly provided by Alexander G. Shilov (Institute of Cytology and Genetics SB RAS). The cells were maintained in DMEM plus 10% FBS, under a temperature of 37 °C, atmosphere of 5% of CO2 and 90% humidity.
(§2) MTT test was performed according to a standard procedure (Mosmann, [1983]). Cells were seeded in a 96-well plate at a density of 5 × 10^3 cells/well and after 24 h of adherence, the cells were treated with different concentration of test compounds and incubated for 48 h at 37 °C in an atmosphere of 5% CO2 in air. Untreated cells were used as negative control and doxorubicin was used as a positive control. After the incubation period, 10 μL MTT solution (3 mg/mL of PBS) was added to each well followed by incubation for 3 h under the condition mentioned above. Then, the MTT-containing medium was removed and the formazan crystals were dissolved with 100 μL of isopropanol. Absorbance was measured at 630 and 492 nm using a microplate reader (Thermo Scientific, Waltham, MA). The cell viability percentage was calculated using the following formula: Viability (%)=OD (treated cells)/OD (untreated cells) × 100, where OD was an optical density of solution.

[1] = Solubility determination in distilled water (HPLC); format: physicochemical; settings: +37 °C
Method: The amount of Cur was determined by using a high performance liquid chromatography (HPLC) system (Agilent 1200, Santa Clara, CA) with column Zorbax Eclipse XDB-C18, 4.6 × 50 mm at +30 °C and diode-array detector. Acetonitrile–acetate buffer (55:45) was used as eluent (pH = 3.4) with flow rate of 1.0 mL/min, and detection wavelength was 430 nm. […] At last, sample solutions were filtered and analyzed by HPLC.

[2] = Oral pharmacokinetic (bioavailability) study in rats; format: in vivo; settings: male, Sprague Dawley; rat plasma, single oral dose 150 mg/kg Cur
Method: The pharmacokinetic study was carried out in male Sprague Dawley rats (10 weeks of age, 250–260 g body weight, provided by the Zhejiang Academy of Medical Science, Hangzhou, China). All animal (used in this experiment) handling procedures were performed in strict compliance with the PR China legislation for the use and care of laboratory animals and were approved by the University Committee for Animal Experiments. The animals were fasted overnight (12 h) and had free access to drinking water throughout the experimental period. […] To evaluate the concentration of Cur in plasma, blood was collected into heparinized Eppendroff tubes at different time points: 0.083, 0.25, 0.5, 1, 2, 4, 6, 8, 12, and 24 h post-dosing and centrifuged (Sigma Laboratory Centrifuge, Model 3K-30, Osterode am Harz, Germany) at 9391 × g for 5 min to separate the plasma. The plasma samples were stored at –80 °C until further analysis.
A 100 μL aliquot of plasma was transferred to a clean microcentrifuge tube and next treated with 100 μL of a solution containing 1000 U of β-glucuronidase in 0.1 M phosphate buffer (pH 6.8). The resulting mixture was then thoroughly vortexed and incubated at 37 °C for 1 h to hydrolyze the conjugated Cur. After incubation, 0.1 mL acetonitrile was added to 0.1 mL of plasma and centrifuged (Sigma Laboratory Centrifuge, Model3K-30, Osterode am Harz, Germany) at 9391 × g for 15 min, and then the supernatant was subjected to be analyzed by HPLC.
Standard pharmacokinetic parameters for free Cur and Cur SDs were calculated by linear trapezoidal method using the PKSolver, a freely available menu-driven add-in program for Microsoft Excel. The results were presented as mean ± standard error of the mean (SEM). One-way analysis of variance (ANOVA) was followed by Dunnett’s test for multiple comparisons statistical evaluation. p Values <.05 were considered significant.

[3] = parameters: method as in Priyadarsini, 2014; settings: acidic and neutral pH; ref Priyadarsini, 2014; cited from earlier work
[4] = cited from earlier work
MCF-7 cells = assay: MTT cytotoxicity test, MCF-7; format: cell-based, human; settings: for Viability: 48 h
Method: as §1, §2

[5] = test system: immortalized human fibroblasts; assay: MTT cytotoxicity test, immortalized human fibroblasts; format: cell-based; settings: for Viability: 48 h
Method: as §1, §2

[6] = Molecular weight distribution by gel permeation chromatography; format: physicochemical; settings: dissolved in water
Method: The molecular weight distribution (MWD) of the samples was investigated by gel permeation chromatography (GPC) on the Agilent 1200 chromatograph with column PL aquel-OH 40 (Santa Clara, CA), 300 × 7.5 mm column at 30 °C with refractometric detector. The solvent used was 0.02% NaN3 aqueous solution and flow rate was 1 mL/min. The calibration was performed by standard dextrans with molecular weights of 1, 5, 12, 25, 80, 150, 270, and 410 kDa. Agilent GPC data analysis program was used to process the results (Santa Clara, CA).

COc1cc(/C=C/C(=O)CC(=O)/C=C/c2ccc(O)c(OC)c2)ccc1O [Free Cur, Curcumin]
Mean cell survival (U-87 MG cells; Cur concentration range 25–100 μM, 48 h): above 80%
solubility at 12 h [1]: 1.73 µg/mL (≈ 4.7 µM)
AUC(0-inf) [2]: 14300 ± 720 ng·h/mL
AUC(0-t) [2]: 12100 ± 360 ng·h/mL
Cmax [2]: 1480 ± 30 ng/mL
Tmax [2]: 0.25 h
half-life [2]: 5.07 ± 0.41 h
Solubility in water [3]: practically insoluble

CC1(C)[C@@H](O[C@H]2O[C@H](C(=O)O)[C@@H](O)[C@H](O)[C@H]2O[C@@H]2O[C@H](C(=O)O)[C@@H](O)[C@H](O)[C@H]2O)CC[C@]2(C)[C@H]3C(=O)C=C4[C@@H]5C[C@@](C)(C(=O)O)CC[C@]5(C)CC[C@@]4(C)[C@]3(C)CC[C@@H]12 [GA, Glycyrrhizic acid]
Molecular weight of micelles formed in water ([4]; dissolved in water, ref Dushkin & Tolstikova, 2012): 66 kDa
Critical micelle concentration ([4]; ref Kornievskaya et al., 2007, Polyakov, 2011): ~1 mM

CC1(C)[C@@H](O[C@H]2O[C@H](C(=O)[O-])[C@@H](O)[C@H](O)[C@H]2O[C@@H]2O[C@H](C(=O)O)[C@@H](O)[C@H](O)[C@H]2O)CC[C@]2(C)[C@H]3C(=O)C=C4[C@@H]5C[C@@](C)(C(=O)[O-])CC[C@]5(C)CC[C@@]4(C)[C@]3(C)CC[C@@H]12.[Na+].[Na+] [Na2GA, disodium glycyrrhizin]
Viability (U-87 MG cells; 25 μM, 48 h): 96.6 ± 2.39%
Viability (U-87 MG cells; 50 μM, 48 h): 95.9 ± 1.16%
Viability (U-87 MG cells; 100 μM, 48 h): 92.2 ± 2.75%
Viability (U-87 MG cells; 200 μM, 48 h): 92.2 ± 2.63%
Viability (U-87 MG cells; 400 μM, 48 h): 92.9 ± 1.65%
Cytotoxicity (U-87 MG cells; 25–400 μM): no cytotoxicity
Viability (MCF-7 cells; MCF-7, 25 μM): 98.2 ± 2.13%
Viability (MCF-7 cells; MCF-7, 50 μM): 97.8 ± 3.33%
Viability (MCF-7 cells; MCF-7, 100 μM): 98.2 ± 0.41%
Viability (MCF-7 cells; MCF-7, 200 μM): 98.7 ± 1.59%
Viability (MCF-7 cells; MCF-7, 400 μM): 99.6 ± 1.34%
Cytotoxicity (MCF-7 cells; MCF-7, 25–400 μM): no cytotoxicity
Viability ([5]; 25 μM): 96.2 ± 2.78%
Viability ([5]; 50 μM): 97.3 ± 1.73%
Viability ([5]; 100 μM): 98.8 ± 4.18%
Viability ([5]; 200 μM): 96.0 ± 1.66%
Viability ([5]; 400 μM): 98.3 ± 0.90%
Cytotoxicity ([5]; 25–400 μM): no cytotoxicity
Molecular weight of micelles formed in water [6]: 85–90 kDa
